Source: ChEMBL document CHEMBL3232928, “Fragment-to-hit-to-lead discovery of a novel pyridylurea scaffold of ATP competitive dual targeting type II topoisomerase inhibiting antibacterial agents” (J Med Chem, 2013)
Converted amounts (≈) assume the structure as drawn. The source made the active and inactive calls. The rule behind the calls is not given here.

Experiments:
[1] = biological target: DNA gyrase subunit B (Staphylococcus aureus, UniProt P0A0K8); assay: Inhibition of ATPase activity in Staphylococcus aureus GyrB tetramer in presence of Escherichia coli GyrA by ammonium molybdate/malachite green-based absorbance assay
[2] = Inhibition of ATPase activity in Escherichia coli GyrA/GyrB by ammonium molybdate/malachite green-based absorbance assay
[3] = Inhibition of ATPase activity in Escherichia coli ParC/ParE by ammonium molybdate/malachite green-based absorbance assay
[4] = Inhibition of ATPase activity in Escherichia coli ParE by ammonium molybdate/malachite green-based absorbance assay
[5] = Antibacterial activity against Streptococcus pneumoniae D39 NCTC 7466 assessed as growth inhibition after 18 to 24 hrs by CLSI broth microdilution method; format: functional
[6] = test system: Staphylococcus aureus; assay: Antibacterial activity against methicillin-sensitive wild type Staphylococcus aureus assessed as growth inhibition after 18 to 24 hrs by CLSI broth microdilution method; format: functional
[7] = test system: Staphylococcus aureus; assay: Antibacterial activity against methicillin-resistant and […] Staphylococcus aureus assessed as growth inhibition after 18 to 24 hrs by CLSI broth microdilution method; format: functional
[8] = test system: Moraxella catarrhalis; assay: Antibacterial activity against wild type Moraxella catarrhalis ATCC 43617 assessed as growth inhibition after 18 to 24 hrs by CLSI broth microdilution method; format: functional
[9] = Antibacterial activity against wild type Haemophilus influenzae Rd KW20 ATCC 51907 assessed as growth inhibition after 18 to 24 hrs by CLSI broth microdilution method; format: functional
[10] = test system: Escherichia coli; assay: Antibacterial activity against wild type Escherichia coli W3110 assessed as growth inhibition after 18 to 24 hrs by CLSI broth microdilution method; format: functional
[11] = test system: Escherichia coli; assay: Antibacterial activity against tolC efflux pump deficient Escherichia coli W3110 assessed as growth inhibition after 18 to 24 hrs by CLSI broth microdilution method; format: functional
[12] = Octanol-phosphate buffer partition coefficient, log D of the compound at pH 7.4 after 1 hr by shake flask method; format: physicochemical
[13] = Solubility of the compound; format: physicochemical
[14] = Unbound fraction in human at 10 uM after 16 hrs by LC-MS/MS analysis; format: ADME; conditions: plasma
[15] = Dissociation constant, pKa of the compound; format: physicochemical
[16] = Clearance in rat plasma at 10 mg/kg, iv administered 15 mins of infusion measured for 0 to 24 hrs by LC-MS/MS analysis; format: ADME, organism-based; set-up: dose 10 mg/kg, route intravenous
[17] = Volume of distribution at steady state in rat plasma at 10 mg/kg, iv administered 15 mins of infusion measured for 0 to 24 hrs by LC-MS/MS analysis; format: ADME, organism-based; set-up: dose 10 mg/kg, route intravenous; conditions: read-out: Vdss
[18] = Clearance in mouse; format: ADME, organism-based; conditions: in vivo
[19] = Volume of distribution at steady state in mouse; format: ADME, organism-based; conditions: in vivo, read-out: Vdss
[20] = Antibacterial activity against fluoroquinolone-resistant Streptococcus pneumoniae D39 NCTC 7466 expressing ParE/GyrB T172A mutant assessed as growth inhibition after 18 to 24 hrs by CLSI broth microdilution method; format: functional
[21] = Antibacterial activity against fluoroquinolone-resistant Streptococcus pneumoniae D39 NCTC 7466 expressing ParE/GyrB K143I mutant assessed as growth inhibition after 18 to 24 hrs by CLSI broth microdilution method; format: functional
[22] = Antibacterial activity against fluoroquinolone-resistant Streptococcus pneumoniae D39 NCTC 7466 expressing GyrB/ParE T172A mutant assessed as growth inhibition after 18 to 24 hrs by CLSI broth microdilution method; format: functional
[23] = Antibacterial activity against fluoroquinolone-resistant Streptococcus pneumoniae D39 NCTC 7466 expressing GyrB T172A/ParE T172A double mutant assessed as growth inhibition after 18 to 24 hrs by CLSI broth microdilution method; format: functional
[24] = Antibacterial activity against fluoroquinolone-resistant Streptococcus pneumoniae D39 NCTC 7466 expressing GyrB K143A/ParE T172A double mutant assessed as growth inhibition after 18 to 24 hrs by CLSI broth microdilution method; format: functional
[25] = Antibacterial activity against fluoroquinolone-resistant Streptococcus pneumoniae D39 NCTC 7466 expressing GyrA S81F/ParC S79F double mutant assessed as growth inhibition after 18 to 24 hrs by CLSI broth microdilution method; format: functional
[26] = Antibacterial activity against fluoroquinolone-resistant Streptococcus pneumoniae D39 NCTC 7466 expressing GyrA S81Y/ParC S79F double mutant assessed as growth inhibition after 18 to 24 hrs by CLSI broth microdilution method; format: functional
[27] = Antibacterial activity against fluoroquinolone-resistant Streptococcus pneumoniae D39 NCTC 7466 expressing GyrA S81F/ParC S79Y double mutant assessed as growth inhibition after 18 to 24 hrs by CLSI broth microdilution method; format: functional
[28] = test system: Staphylococcus aureus; assay: Antibacterial activity against Staphylococcus aureus infected in neutropenic mouse thigh model assessed as decrease in bacterial viable counts at 300 mg/kg, ip administered up to 12 hrs; format: functional, organism-based; set-up: dose 300 mg/kg
[29] = test system: Staphylococcus aureus; assay: Antibacterial activity against Staphylococcus aureus infected in neutropenic mouse thigh model assessed as decrease in bacterial viable counts at 300 mg/kg, ip administered up to 12 hrs relative to vehicle-treated control; format: functional; conditions: route intraperitoneal
[30] = test system: Staphylococcus aureus; assay: Antibacterial activity against ip dosed Staphylococcus aureus infected in neutropenic mouse thigh model assessed as decrease in bacterial viable counts administered up to 12 hrs relative to vehicle-treated control; format: functional, organism-based; conditions: Thigh muscle
[31] = test system: Staphylococcus aureus; assay: Antibacterial activity against ip dosed Staphylococcus aureus infected in neutropenic mouse thigh model assessed as decrease in bacterial viable counts administered up to 12 hrs; format: functional; conditions: Thigh muscle
[32] = test system: Staphylococcus aureus; assay: Resistance factor, ratio of MIC for Staphylococcus aureus drug resistance mutants at 0.05 ug/ml after 7 days to MIC for wild type methicillin-sensitive Staphylococcus aureus at 0.05 ug/ml after 7 days; format: functional
[33] = test system: Staphylococcus aureus; assay: Resistance factor, ratio of MIC for Staphylococcus aureus drug resistance mutants at 0.05 ug/ml after 7 days to MIC for wild type methicillin-sensitive Staphylococcus aureus at 0.1 ug/ml after 7 days; format: functional
[34] = test system: Staphylococcus aureus; assay: Resistance factor, ratio of MIC for Staphylococcus aureus drug resistance mutants at 0.05 ug/ml after 7 days to MIC for wild type methicillin-sensitive Staphylococcus aureus at 0.2 ug/ml after 7 days; format: functional
[35] = test system: Streptococcus pneumoniae; assay: microbe, parasite or virus in culture
Description: Antibacterial activity against wild type Streptococcus pneumoniae assessed as growth inhibition after 18 to 24 hrs by CLSI broth microdilution method

[36] = test system: Staphylococcus aureus; assay: Inhibition of DNA synthesis in methicillin-sensitive wild type Staphylococcus aureus over 1 hr by [3H]thymidine incorporation assay; format: functional, organism-based
[37] = test system: Staphylococcus aureus; assay: Inhibition of RNA synthesis in methicillin-sensitive wild type Staphylococcus aureus over 1 hr by [3H]uridine incorporation assay; format: functional, organism-based
[38] = test system: Staphylococcus aureus; assay: Inhibition of protein synthesis in methicillin-sensitive wild type Staphylococcus aureus over 1 hr by [14C]leucine incorporation assay; format: functional, organism-based
[39] = test system: Staphylococcus aureus; assay: Inhibition of protein synthesis in methicillin-sensitive wild type Staphylococcus aureus over 1 hr by [14C]valine incorporation assay; format: functional, organism-based
[40] = test system: Staphylococcus aureus; assay: Inhibition of fatty acid synthesis in methicillin-sensitive wild type Staphylococcus aureus over 1 hr by [14C]acetic acid incorporation assay; format: functional, organism-based
[41] = test system: Staphylococcus aureus; assay: Inhibition of cell wall synthesis in methicillin-sensitive wild type Staphylococcus aureus over 1 hr by [14C]N-acetyl glucosamine incorporation assay; format: functional, organism-based
[42] = test system: Streptococcus pneumoniae; assay: Inhibition of DNA synthesis in Streptococcus pneumoniae D39 over 1 hr by [3H]thymidine incorporation assay; format: functional
[43] = test system: Streptococcus pneumoniae; assay: Inhibition of RNA synthesis in Streptococcus pneumoniae D39 over 1 hr by [3H]uridine incorporation assay; format: functional
[44] = test system: Streptococcus pneumoniae; assay: Inhibition of protein synthesis in Streptococcus pneumoniae D39 over 1 hr by [14C]leucine incorporation assay; format: functional; conditions: D39, 1 h
[45] = test system: Streptococcus pneumoniae; assay: Inhibition of protein synthesis in Streptococcus pneumoniae D39 over 1 hr by [14C]valine incorporation assay; format: functional; conditions: D39, 1 h
[46] = test system: Streptococcus pneumoniae; assay: Inhibition of fatty acid synthesis in Streptococcus pneumoniae D39 over 1 hr by [14C]acetic acid incorporation assay; format: functional; conditions: D39, 1 h
[47] = test system: Streptococcus pneumoniae; assay: Inhibition of cell wall synthesis in Streptococcus pneumoniae D39 over 1 hr by [14C]N-acetyl glucosamine incorporation assay; format: functional; conditions: D39, 1 h

DNA gyrase subunit B, sequence (P0A0K8 whole entry): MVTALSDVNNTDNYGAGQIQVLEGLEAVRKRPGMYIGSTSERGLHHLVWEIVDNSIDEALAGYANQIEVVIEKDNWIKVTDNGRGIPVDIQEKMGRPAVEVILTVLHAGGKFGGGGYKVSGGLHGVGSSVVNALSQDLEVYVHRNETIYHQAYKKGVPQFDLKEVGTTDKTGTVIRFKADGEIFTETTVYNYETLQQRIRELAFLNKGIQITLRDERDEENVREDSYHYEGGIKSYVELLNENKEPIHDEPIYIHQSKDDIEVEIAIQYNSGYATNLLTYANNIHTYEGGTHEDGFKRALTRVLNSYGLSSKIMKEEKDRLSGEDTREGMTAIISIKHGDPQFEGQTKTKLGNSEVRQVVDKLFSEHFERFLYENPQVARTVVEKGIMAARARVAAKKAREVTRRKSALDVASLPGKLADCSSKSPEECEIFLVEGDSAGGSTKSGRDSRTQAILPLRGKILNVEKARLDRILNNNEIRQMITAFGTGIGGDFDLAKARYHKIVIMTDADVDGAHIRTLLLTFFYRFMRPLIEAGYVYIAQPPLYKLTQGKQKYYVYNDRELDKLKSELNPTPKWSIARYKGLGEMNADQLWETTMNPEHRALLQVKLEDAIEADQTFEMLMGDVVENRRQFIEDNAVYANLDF

Row | Compound | IC50 [1] [nM] | IC50 [2] [nM] | IC50 [3] [nM] | IC50 [4] [nM] | MIC [5] [µg/mL] | MIC [6] [µg/mL] | MIC [8] [µg/mL] | MIC [9] [µg/mL] | MIC [10] [µg/mL] | MIC [11] [µg/mL] | logD at 1 h [12] | solubility [13] [µM] | fraction unbound at 16 h, 10 µM [14] | pKa [15] | MIC [20] [µg/mL] | MIC [21] [µg/mL] | MIC [22] [µg/mL] | MIC [23] [µg/mL] | MIC [24] [µg/mL] | MIC [25] [µg/mL] | other results
1 | CCNC(=O)Nc1cc(-c2nc(C(F)(F)F)cs2)c(-c2cncc(-c3n[nH]c(=O)o3)c2)cn1 | < 10 | < 10 | 230 | < 10 | 0.05 (≈ 0.105 µM) | 0.04 (≈ 0.0838 µM) | 0.04 (≈ 0.0838 µM) | 0.69 (≈ 1.45 µM) | > 64 | 0.15 (≈ 0.314 µM) | 2 | 19 (≈ 9.07 µg/mL) | 0.044 | 6.6 | 0.01 (≈ 0.0209 µM) | 0.01 (≈ 0.0209 µM) | 0.01 (≈ 0.0209 µM) | 0.02 (≈ 0.0419 µM) | 0.04 (≈ 0.0838 µM) | 0.0025 (≈ 0.00524 µM) | MIC [7]: 0.06 µg/mL (≈ 0.126 µM); clearance [16]: 36 mL/min/kg; Vd [17]: 0.66 L/kg; clearance [18]: 74 mL/min/kg; Vd [19]: 2.6 L/kg; MIC [26]: 0.0025 µg/mL (≈ 0.00524 µM); MIC [27]: 0.0025 µg/mL (≈ 0.00524 µM); Activity [28]: Active; fold change (FC) [29]: 3000; Activity [30]: Dose-dependent effect; ED50 [31]: 200 mg/kg; Ratio [32]: 16; Ratio [33]: 16; Ratio [34]: 16; MIC [35]: 0.0025 µg/mL (≈ 0.00524 µM)
2 | O=C(O)c1cn(C2CC2)c2cc(N3CCNCC3)c(F)cc2c1=O [CIPROFLOXACIN] |  |  |  |  |  |  |  |  |  |  |  |  |  |  |  |  |  |  |  |  | IC50 [36]: 3900 nM; IC50 [37]: > 195000 nM; IC50 [38]: > 174000 nM; IC50 [39]: > 195000 nM; IC50 [40]: > 195000 nM; IC50 [41]: > 195000 nM; IC50 [42]: 28000 nM; IC50 [43]: > 200000 nM; IC50 [44]: 110000 nM; IC50 [45]: > 200000 nM; IC50 [46]: > 200000 nM; IC50 [47]: > 200000 nM
3 | CCNC(=O)Nc1cc(-c2nc(C(F)(F)F)cs2)c(-c2cncc(C(=O)O)c2)cn1 | < 10 | < 10 | 510 | < 10 | 2 (≈ 4.57 µM) | > 64 | 64 (≈ 146 µM) | > 64 | > 64 | 16 (≈ 36.6 µM) | -0.62 | 800 (≈ 350 µg/mL) | 0.082 | 3.7 |  |  |  |  |  |  | 
4 | CCNC(=O)Nc1cc(-c2nc(C(F)(F)F)cs2)c(-c2cncc(-c3nnn[nH]3)c2)cn1 | < 10 | < 10 | 260 | < 10 | 1.4 (≈ 3.03 µM) | > 64 | > 64 | > 64 | > 64 | 23 (≈ 49.8 µM) | -0.38 | 240 (≈ 111 µg/mL) | 0.14 | 3.7 |  |  |  |  |  |  | 
5 | CO[C@@H]1[C@@H](OC(N)=O)[C@@H](O)[C@H](Oc2ccc3c(O)c(NC(=O)c4ccc(O)c(CC=C(C)C)c4)c(=O)oc3c2C)OC1(C)C [NOVOBIOCIN] |  |  |  |  |  |  |  |  |  |  |  |  |  |  | 2 (≈ 3.26 µM) | 1 (≈ 1.63 µM) | 0.25 (≈ 0.408 µM) | 4 (≈ 6.53 µM) | 4 (≈ 6.53 µM) | 0.25 (≈ 0.408 µM) | MIC [26]: 0.25 µg/mL (≈ 0.408 µM); MIC [27]: 0.25 µg/mL (≈ 0.408 µM); MIC [35]: 0.5 µg/mL (≈ 0.816 µM)
